Like-named read-outs stand apart in the source and are kept apart here. Where no end group is shown, it is not given here.
Tests used:
Format in all cases: cell-based
hsTRPA1 [1] = target: T1, hsTRPA1 (Homo sapiens, UniProt O75762); experiment: Effect of agents on AITC-triggered GCaMP6f response of hsTRPA1-expressing HEK cells; conditions: AITC 33 μM; after incubation with agent; versus vehicle
T1 construct: HEK cells transfected with either full-length hsTRPA1 or channels containing deletions; porcine teschovirus-1 2A self-cleaving peptide (p2A) linking the channel to dTomato in a bicistronic vector (cleaved yes); host or cells: HEK 293T cells expressing human alpha-v beta-3 integrin and stably expressing GCaMP6f

hsTRPA1 [2] = target: T1, hsTRPA1; experiment: Effect of agents on ultrasound-evoked GCaMP6f response of hsTRPA1-expressing HEK cells
[3] = system: Human Embryonic Kidney 293T (HEK) cells; experiment: Ultrasound-evoked GCaMP6f calcium response of HEK cells transfected with candidate channels (screen and TRPA1 variants); conditions: for Response to ultrasound stimulation (cells activated, GCaMP6f): transfected GCaMP6f HEK cells, 6.91 MHz, screen at 100 msecs, 1.5 MPa
hsTRPA1 [4] = target: T1, hsTRPA1; experiment: Agonist activation of hsTRPA1-expressing HEK cells (GCaMP6f); conditions: NMM 100 μM; AITC 33 μM; dTom control cells for comparison
[5] = system: mouse primary cortical neurons; experiment: GCaMP6f calcium imaging of primary cortical neurons under ultrasound or AITC
mouse-Piezol = mouse-Piezol (Mus musculus, UniProt E2JF22); conditions: yoda-1 10 μM
hsTRPA1 [6] = target: T1, hsTRPA1
[7] = system: Human Embryonic Kidney 293T (HEK) cells; experiment: AITC (chemical agonist) GCaMP6f response of HEK cells transfected with hsTRPA1 variants; conditions: AITC 33 μM
[8] = agent added 45 minutes before, HC-030031 40 μM, MCD 5 mM, nocodazole 5 μM, latrunculin A 1 μM, paclitaxel 600 nM, versus vehicle
[9] = A784168 2 μM, BAPTA 30 μM, versus vehicle
[10] = control neurons without hsTRPA1

T1 sequence (O75762 whole entry): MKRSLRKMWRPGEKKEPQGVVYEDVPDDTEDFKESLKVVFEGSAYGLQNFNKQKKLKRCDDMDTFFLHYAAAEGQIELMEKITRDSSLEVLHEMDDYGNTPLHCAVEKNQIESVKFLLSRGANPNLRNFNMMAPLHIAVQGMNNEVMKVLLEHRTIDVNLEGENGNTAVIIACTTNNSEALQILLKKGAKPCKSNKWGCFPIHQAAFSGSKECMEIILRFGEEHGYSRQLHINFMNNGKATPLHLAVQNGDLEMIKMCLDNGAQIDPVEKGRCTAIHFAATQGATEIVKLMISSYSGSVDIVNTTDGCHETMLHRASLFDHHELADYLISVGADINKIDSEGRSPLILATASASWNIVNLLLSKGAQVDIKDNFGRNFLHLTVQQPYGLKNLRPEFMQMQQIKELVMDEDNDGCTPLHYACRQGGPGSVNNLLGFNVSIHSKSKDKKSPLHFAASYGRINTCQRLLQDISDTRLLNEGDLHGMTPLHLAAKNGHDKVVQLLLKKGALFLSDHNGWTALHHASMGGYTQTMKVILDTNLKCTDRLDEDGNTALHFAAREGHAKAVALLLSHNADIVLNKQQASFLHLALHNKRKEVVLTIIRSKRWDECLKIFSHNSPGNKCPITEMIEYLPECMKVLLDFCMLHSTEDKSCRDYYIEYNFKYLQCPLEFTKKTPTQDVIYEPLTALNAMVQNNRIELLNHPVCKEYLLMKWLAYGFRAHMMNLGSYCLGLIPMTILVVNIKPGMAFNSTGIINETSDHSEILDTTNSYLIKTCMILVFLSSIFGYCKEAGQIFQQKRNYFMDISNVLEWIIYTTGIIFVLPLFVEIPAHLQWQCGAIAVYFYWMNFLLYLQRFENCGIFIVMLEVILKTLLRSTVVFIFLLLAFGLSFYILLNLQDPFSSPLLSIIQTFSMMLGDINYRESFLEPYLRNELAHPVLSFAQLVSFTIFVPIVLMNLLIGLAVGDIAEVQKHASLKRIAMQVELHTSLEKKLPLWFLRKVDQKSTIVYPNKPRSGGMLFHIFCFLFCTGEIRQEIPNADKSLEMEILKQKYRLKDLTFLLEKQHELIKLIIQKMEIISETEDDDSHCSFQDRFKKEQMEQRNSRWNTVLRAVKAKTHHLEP
mouse-Piezol, sequence (E2JF22 whole entry): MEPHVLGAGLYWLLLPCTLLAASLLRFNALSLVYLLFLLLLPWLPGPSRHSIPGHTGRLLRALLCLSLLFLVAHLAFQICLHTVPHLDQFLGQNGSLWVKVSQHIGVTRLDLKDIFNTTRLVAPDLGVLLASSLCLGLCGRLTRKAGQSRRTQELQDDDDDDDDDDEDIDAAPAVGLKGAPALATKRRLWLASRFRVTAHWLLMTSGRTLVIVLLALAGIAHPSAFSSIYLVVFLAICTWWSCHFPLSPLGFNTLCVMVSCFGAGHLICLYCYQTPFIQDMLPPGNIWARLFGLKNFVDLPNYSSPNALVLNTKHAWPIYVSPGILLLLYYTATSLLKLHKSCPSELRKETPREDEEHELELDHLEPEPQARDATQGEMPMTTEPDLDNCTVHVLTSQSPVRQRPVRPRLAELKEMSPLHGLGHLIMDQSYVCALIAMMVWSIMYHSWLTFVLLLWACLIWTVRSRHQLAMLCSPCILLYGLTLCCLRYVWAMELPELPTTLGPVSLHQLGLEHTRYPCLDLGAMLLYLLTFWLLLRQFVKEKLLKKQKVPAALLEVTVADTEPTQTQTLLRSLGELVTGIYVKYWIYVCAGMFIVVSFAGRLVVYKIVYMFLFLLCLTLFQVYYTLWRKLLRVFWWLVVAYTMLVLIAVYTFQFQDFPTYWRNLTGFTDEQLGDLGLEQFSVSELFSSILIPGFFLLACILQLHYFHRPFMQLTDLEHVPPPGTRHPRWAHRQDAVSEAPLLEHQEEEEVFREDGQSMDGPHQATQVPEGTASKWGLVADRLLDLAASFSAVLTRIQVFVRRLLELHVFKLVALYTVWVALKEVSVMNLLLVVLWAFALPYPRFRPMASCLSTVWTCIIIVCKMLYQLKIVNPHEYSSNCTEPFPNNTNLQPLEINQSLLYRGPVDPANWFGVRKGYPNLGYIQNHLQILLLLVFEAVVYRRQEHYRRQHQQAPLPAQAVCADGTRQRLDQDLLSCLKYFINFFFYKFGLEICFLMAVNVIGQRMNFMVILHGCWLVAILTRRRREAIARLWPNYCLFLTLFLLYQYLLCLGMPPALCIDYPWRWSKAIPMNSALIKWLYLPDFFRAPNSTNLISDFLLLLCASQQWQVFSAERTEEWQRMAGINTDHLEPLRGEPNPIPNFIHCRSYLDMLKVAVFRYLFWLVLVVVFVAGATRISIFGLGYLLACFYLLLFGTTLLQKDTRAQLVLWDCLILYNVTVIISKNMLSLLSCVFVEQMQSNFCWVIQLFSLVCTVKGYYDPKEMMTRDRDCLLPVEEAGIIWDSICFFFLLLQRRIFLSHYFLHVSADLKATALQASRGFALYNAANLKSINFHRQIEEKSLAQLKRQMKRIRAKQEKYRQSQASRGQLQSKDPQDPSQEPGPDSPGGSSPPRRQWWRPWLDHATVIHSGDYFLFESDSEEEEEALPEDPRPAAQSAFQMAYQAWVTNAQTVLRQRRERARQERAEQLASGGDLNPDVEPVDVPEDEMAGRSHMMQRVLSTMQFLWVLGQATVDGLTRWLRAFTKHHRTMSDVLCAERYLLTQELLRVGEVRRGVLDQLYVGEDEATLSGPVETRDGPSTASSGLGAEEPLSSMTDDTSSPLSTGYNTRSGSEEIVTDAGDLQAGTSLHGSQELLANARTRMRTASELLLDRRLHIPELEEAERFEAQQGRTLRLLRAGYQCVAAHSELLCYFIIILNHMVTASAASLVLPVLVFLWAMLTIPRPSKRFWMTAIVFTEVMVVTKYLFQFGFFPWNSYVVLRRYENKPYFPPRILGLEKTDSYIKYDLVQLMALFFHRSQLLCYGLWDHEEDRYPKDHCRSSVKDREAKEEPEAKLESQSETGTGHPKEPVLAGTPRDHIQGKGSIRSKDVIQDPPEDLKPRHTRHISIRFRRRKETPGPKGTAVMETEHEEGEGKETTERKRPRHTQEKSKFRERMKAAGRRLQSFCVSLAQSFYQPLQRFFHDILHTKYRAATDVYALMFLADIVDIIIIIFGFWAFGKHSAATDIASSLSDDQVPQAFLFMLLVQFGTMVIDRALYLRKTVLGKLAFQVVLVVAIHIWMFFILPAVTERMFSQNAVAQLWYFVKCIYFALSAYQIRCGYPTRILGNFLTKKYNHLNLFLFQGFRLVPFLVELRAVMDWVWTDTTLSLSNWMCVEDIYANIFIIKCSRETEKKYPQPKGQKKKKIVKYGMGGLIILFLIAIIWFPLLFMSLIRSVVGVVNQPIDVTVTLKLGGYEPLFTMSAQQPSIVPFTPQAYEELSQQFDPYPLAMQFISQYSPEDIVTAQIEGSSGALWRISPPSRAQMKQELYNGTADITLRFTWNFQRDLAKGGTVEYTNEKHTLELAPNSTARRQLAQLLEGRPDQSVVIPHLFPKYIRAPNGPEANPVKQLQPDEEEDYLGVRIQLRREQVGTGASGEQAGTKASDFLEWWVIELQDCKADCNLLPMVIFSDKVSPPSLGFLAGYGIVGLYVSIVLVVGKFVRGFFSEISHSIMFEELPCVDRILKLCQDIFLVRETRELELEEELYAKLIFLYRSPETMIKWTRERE

Molecule: C=C1[C@@H](C)[C@H]2[C@H](Cc3ccccc3)NC(=O)[C@]23[C@H](OC(C)=O)/C=C/[C@@](C)(O)C(=O)[C@@H](C)C/C=C/[C@H]3[C@@H]1O [cytochalasin D]
- Effect on AITC-triggered responses of hsTRPA1-expressing HEK cells (hsTRPA1 [1]): not to be altered
- Effect on ultrasound responses of hsTRPA1-expressing HEK cells (GCaMP6f peak amplitude) (hsTRPA1 [2]; [8]): reduced the ultrasound responses

Molecule: mouse homolog: mouse TRPA1 (Mus musculus; RefSeq NM_177781)
- Response to ultrasound stimulation (cells activated, GCaMP6f) [3]: only a third as responsive as hsTRPA1

Molecule: C/C1=C/C(=O)O[C@@H]2C[C@@H](CC[C@H](C)/C=C\C=C\CC1)O[C@@](O)([C@@H]1CSC(=O)N1)C2 [latrunculin A]
- Effect on AITC-triggered responses of hsTRPA1-expressing HEK cells (hsTRPA1 [1]): significantly reduced
- Effect on ultrasound responses of hsTRPA1-expressing HEK cells (GCaMP6f peak amplitude) (hsTRPA1 [2]; [8]): reduced the ultrasound responses

Molecule: CN1C(=O)C=CC1=O [NMM, N-methylmaleimide]
- Activation of TRPA1-expressing HEK cells by agonist (GCaMP6f) (hsTRPA1 [4]): specifically activated TRPA1-expressing HEK cells

Molecule: O=C(O)CN(CC(=O)O)c1ccccc1OCCOc1ccccc1N(CC(=O)O)CC(=O)O [BAPTA]
- Effect on ultrasound responses of hsTRPA1-expressing neurons (GCaMP6f) [5, 9]: blocked neuronal responses to ultrasound

Molecule: GsMTx-4-4: GsMTx-4, applied to Piezo1- and TRPV1-expressing HEK cells (GCLEFWWKCNPNDDKCCRPKLKCSKLFKLCNFSF; ends and bridges not checked; cysteine pairing not given here; UniProt Q7YT39 47-80, looked up)
- Response of HEK cells expressing mouse Piezo1 to compound (mouse-Piezol): not

Molecule: NC1=N[C@H](O)[C@H]2[C@H]3O[C@]4(O)O[C@@H]([C@@H](O)[C@@]2(N1)[C@@H]4O)[C@]3(O)CO [tetrodotoxin]
- Effect on ultrasound responses of hsTRPA1-expressing neurons (GCaMP6f) [5]: partially blocked
- Effect on ultrasound-evoked activity of control (Cre) neurons [5]: completely abolishing responses

Molecule: mouse-Piezol: mouse Piezo1 channel expressed in HEK cells
- Response to ultrasound stimulation (cells activated, GCaMP6f) [3]: not

Molecule: CC(=O)O[C@H]1C(=O)[C@@]2(C)[C@H]([C@H](OC(=O)c3ccccc3)[C@]3(O)C[C@H](OC(=O)[C@H](O)[C@@H](NC(=O)c4ccccc4)c4ccccc4)C(C)=C1C3(C)C)[C@]1(OC(C)=O)CO[C@@H]1C[C@@H]2O [Taxol, paclitaxel]
- Effect on AITC-triggered responses of hsTRPA1-expressing HEK cells (hsTRPA1 [1]): significantly reduced
- Effect on ultrasound responses of hsTRPA1-expressing HEK cells (GCaMP6f peak amplitude) (hsTRPA1 [2]; [8]): no significant effect

Molecule: C=CCN=C=S [AITC, allyl isothiocyanate]
- Response of Cre-only control neurons to agonist [5, 10]: did not respond
- Activation of TRPA1-expressing HEK cells by agonist (GCaMP6f) (hsTRPA1 [4]): specifically activated TRPA1-expressing HEK cells

Molecule: COC(=O)Nc1nc2ccc(C(=O)c3cccs3)cc2[nH]1 [nocodazole]
- Effect on AITC-triggered responses of hsTRPA1-expressing HEK cells (hsTRPA1 [1]): not to be altered
- Effect on ultrasound responses of hsTRPA1-expressing HEK cells (GCaMP6f peak amplitude) (hsTRPA1 [2]; [8]): no significant effect

Molecule: methyl-beta-cyclodextrin [MCD]
- Effect on AITC-triggered responses of hsTRPA1-expressing HEK cells (hsTRPA1 [1]): did not affect the response to AITC
- Effect on ultrasound responses of hsTRPA1-expressing HEK cells (GCaMP6f peak amplitude) (hsTRPA1 [2]; [8]): attenuated hsTRPA1 responses to ultrasound

Molecule: CC(C)c1ccc(NC(=O)Cn2cnc3c2c(=O)n(C)c(=O)n3C)cc1 [HC-030331]
- Effect on ultrasound-triggered membrane events (mean peak amplitude) (hsTRPA1 [6]): attenuated
- Effect on ultrasound responses of hsTRPA1-expressing neurons (GCaMP6f) [5, 9]: significantly attenuated
- Effect on ultrasound-evoked activity of control (Cre) neurons [5, 10]: without affecting
- Effect on ultrasound responses of hsTRPA1-expressing HEK cells (GCaMP6f peak amplitude) (hsTRPA1 [2]): inhibited

Molecule: Clc1cccc(Cl)c1CSc1nnc(-c2cnccn2)s1 [yoda-1]
- Response of HEK cells expressing mouse Piezo1 to compound (mouse-Piezol): respond

Molecule: C/C1=C\[C@H](C)C[C@H](C)OC(=O)C[C@H](c2ccc(O)cc2)NC(=O)[C@@H](Cc2c(Br)[nH]c3ccccc23)N(C)C(=O)[C@H](C)NC(=O)[C@@H](C)C1 [jasplakinolide]
- Effect on AITC-triggered responses of hsTRPA1-expressing HEK cells (hsTRPA1 [1]): significantly reduced

B1: human-TRPV1: human TRPV1 channel expressed in HEK cells (protein, UniProt Q8NER1 1-839, looked up)
Transient receptor potential …: MKKWSSTDLGAAADPLQKDTCPDPLDGDPNSRPPPAKPQLSTAKSRTRLFGKGDSEEAFPVDCPHEEGELDSCPTITVSPVITIQRPGDGPTGARLLSQDSVAASTEKTLRLYDRRSIFEAVAQNNCQDLESLLLFLQKSKKHLTDNEFKDPETGKTCLLKAMLNLHDGQNTTIPLLLEIARQTDSLKELVNASYTDSYYKGQTALHIAIERRNMALVTLLVENGADVQAAAHGDFFKKTKGRPGFYFGELPLSLAACTNQLGIVKFLLQNSWQTADISARDSVGNTVLHALVEVADNTADNTKFVTSMYNEILMLGAKLHPTLKLEELTNKKGMTPLALAAGTGKIGVLAYILQREIQEPECRHLSRKFTEWAYGPVHSSLYDLSCIDTCEKNSVLEVIAYSSSETPNRHDMLLVEPLNRLLQDKWDRFVKRIFYFNFLVYCLYMIIFTMAAYYRPVDGLPPFKMEKTGDYFRVTGEILSVLGGVYFFFRGIQYFLQRRPSMKTLFVDSYSEMLFFLQSLFMLATVVLYFSHLKEYVASMVFSLALGWTNMLYYTRGFQQMGIYAVMIEKMILRDLCRFMFVYIVFLFGFSTAVVTLIEDGKNDSLPSESTSHRWRGPACRPPDSSYNSLYSTCLELFKFTIGMGDLEFTENYDFKAVFIILLLAYVILTYILLLNMLIALMGETVNKIAQESKNIWKLQRAITILDTEKSFLKCMRKAFRSGKLLQVGYTPDGKDDYRWCFRVDEVNWTTWNTNVGIINEDPGNCEGVKRTLSFSLRSSRVSGRHWKNFALVPLLREASARDRQSAQPEEVYLRQFSGSLKPEDAEVFKSPAASGEK
- Response to ultrasound stimulation (cells activated, GCaMP6f) [3]: not

B2: Y785S: hsTRPA1 mutant with TM2 CRAC domain disrupted, Tyr785 replaced with Ser (protein, UniProt O75762 1-1119, looked up, variant Y785S)
Transient receptor potential …: MKRSLRKMWRPGEKKEPQGVVYEDVPDDTEDFKESLKVVFEGSAYGLQNFNKQKKLKRCDDMDTFFLHYAAAEGQIELMEKITRDSSLEVLHEMDDYGNTPLHCAVEKNQIESVKFLLSRGANPNLRNFNMMAPLHIAVQGMNNEVMKVLLEHRTIDVNLEGENGNTAVIIACTTNNSEALQILLKKGAKPCKSNKWGCFPIHQAAFSGSKECMEIILRFGEEHGYSRQLHINFMNNGKATPLHLAVQNGDLEMIKMCLDNGAQIDPVEKGRCTAIHFAATQGATEIVKLMISSYSGSVDIVNTTDGCHETMLHRASLFDHHELADYLISVGADINKIDSEGRSPLILATASASWNIVNLLLSKGAQVDIKDNFGRNFLHLTVQQPYGLKNLRPEFMQMQQIKELVMDEDNDGCTPLHYACRQGGPGSVNNLLGFNVSIHSKSKDKKSPLHFAASYGRINTCQRLLQDISDTRLLNEGDLHGMTPLHLAAKNGHDKVVQLLLKKGALFLSDHNGWTALHHASMGGYTQTMKVILDTNLKCTDRLDEDGNTALHFAAREGHAKAVALLLSHNADIVLNKQQASFLHLALHNKRKEVVLTIIRSKRWDECLKIFSHNSPGNKCPITEMIEYLPECMKVLLDFCMLHSTEDKSCRDYYIEYNFKYLQCPLEFTKKTPTQDVIYEPLTALNAMVQNNRIELLNHPVCKEYLLMKWLAYGFRAHMMNLGSYCLGLIPMTILVVNIKPGMAFNSTGIINETSDHSEILDTTNSYLIKTCMILVFLSSIFGSCKEAGQIFQQKRNYFMDISNVLEWIIYTTGIIFVLPLFVEIPAHLQWQCGAIAVYFYWMNFLLYLQRFENCGIFIVMLEVILKTLLRSTVVFIFLLLAFGLSFYILLNLQDPFSSPLLSIIQTFSMMLGDINYRESFLEPYLRNELAHPVLSFAQLVSFTIFVPIVLMNLLIGLAVGDIAEVQKHASLKRIAMQVELHTSLEKKLPLWFLRKVDQKSTIVYPNKPRSGGMLFHIFCFLFCTGEIRQEIPNADKSLEMEILKQKYRLKDLTFLLEKQHELIKLIIQKMEIISETEDDDSHCSFQDRFKKEQMEQRNSRWNTVLRAVKAKTHHLEP
- GCaMP6f peak amplitude upon ultrasound stimulation, variant versus full-length hsTRPA1 ([3]; transfected HEK cells): complete loss of ultrasound sensitivity
- GCaMP6f peak amplitude upon treatment with AITC, variant versus full-length hsTRPA1 [7]: without affecting responsiveness to AITC

Reference: patent US20230263891A1, “SONOGENETIC STIMULATION OF CELLS EXPRESSING TRPA1” (Salk Institute for Biological Studies, priority 2020, published 2023)
